Experimental data from US20110224276A1, “OPTICAL ISOMER OF PHENYLPROPIONIC ACID AND ITS MEDICINAL USE” (priority 2008, published 2011).
“And” between values parts separate entries of the source, which are not always exact repeats. Equal values may be shown once. Read-outs that look alike come from different tables or passages of the source.

Assays:
Cox-2 = target: T1, Cox-2 (Homo sapiens, UniProt P35354); assay: inhibiting activity to COX-2 (TMPD colorimetric, 590 nm); type: biochemical; details: tested at 300, 100, 30, 10 μmol/L (positive control 100, 30, 10, 3)
T1 construct: purchased Cayman, USA
T1 sequence (P35354 18-604): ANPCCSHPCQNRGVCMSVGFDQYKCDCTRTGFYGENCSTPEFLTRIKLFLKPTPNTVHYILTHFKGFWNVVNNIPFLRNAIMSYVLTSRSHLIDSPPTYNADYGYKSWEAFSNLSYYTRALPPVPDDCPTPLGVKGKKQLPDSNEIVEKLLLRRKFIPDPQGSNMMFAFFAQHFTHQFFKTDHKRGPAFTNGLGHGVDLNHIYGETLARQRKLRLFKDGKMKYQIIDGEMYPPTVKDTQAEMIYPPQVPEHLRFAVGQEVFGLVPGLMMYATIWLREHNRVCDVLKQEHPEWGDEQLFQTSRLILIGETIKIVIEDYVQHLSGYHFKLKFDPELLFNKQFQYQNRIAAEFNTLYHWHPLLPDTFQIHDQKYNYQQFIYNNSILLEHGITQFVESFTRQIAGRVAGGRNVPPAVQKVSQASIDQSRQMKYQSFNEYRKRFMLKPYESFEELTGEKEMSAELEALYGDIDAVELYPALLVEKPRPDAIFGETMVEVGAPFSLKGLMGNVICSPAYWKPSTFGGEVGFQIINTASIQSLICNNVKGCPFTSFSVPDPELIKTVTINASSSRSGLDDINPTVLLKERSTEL
Description: 2.5.1 The Inhibiting Activity to COX-1/COX-2
(1) In 220 ul of reaction system, mixed buffer (1×), heme, COX-1/COX-2, and the compound to be tested, are sequentially added, and are incubated for 5 minutes at 25° C.;
(2) Adding chromogenic substrate (TMPD) and arachidonic acid;
(3) Carefully shaking the plate for several seconds, then incubating for 15 minutes at 25° C.;
(4) Detecting absorption value at 590 nm.
Fitting data of concentration (μmol/L) and corresponding inhibition rate (%) via Microsoft EXCEL software to get a trendline, so as to obtain the half-effective inhibiting concentration (IC50) of each tested enzyme.

[1] = test system: auricle tumefaction of mice caused by xylene; assay: auricle tumefaction of mice caused by xylene; type: in vivo; details: 3 h after xylene
Description: 90 healthy Kunming species of Mus musculus albus are selected, male, weight 18˜22 g, totally 9 tested groups, and each group of 10 mice, said tested groups comprising:
At 0.5 h before modeling, groups (8) and (9) are administrated tested drugs, and other groups are administrated tested drugs at 1 h before modeling. During modeling, the right ears of mice are coated with xylene at concentration of 30 μl/per ear to inflame the ear, and the left ears are performed no treatment. Once 3 h after coating xylene, the animals are sacrificed, and two ears of each mouse are cut, and ear wafers are obtained by making holes at the same positions of ears with puncher with diameter of 8 mm, and then are weighted via an electronic balance.
The tumefaction degree refers to the weight difference of the weight of inflamed ear wafer minus non-inflamed ear wafer. The tumefaction rate tumefaction degree/the weight of normal ear wafer×100‰ The average value of the tumefaction degree and tumefaction rate of each tested group is compared, so as to obtain the ability of anti-inflammation of each tested drug.
Using Microsoft EXCEL software, the average value of tumefaction degree of each tested group and the average value of control group are analyzed by means of t-test, and P<0.05 is considered as statistically significant difference.

[2] = background statement; cited from earlier work
[3] = pharmacokinetic study in rats of ig administration; type: in vivo
[4] = test system: hot plate pain threshold of mice; assay: hot plate pain threshold of mice; type: in vivo; details: 40 mg/kg ip, 0 h (base threshold before administration)
[5] = ig 50 mg/kg, individual animals A-F, listed as R-type isomer

C[C@H](C(=O)O)c1ccc2c(c1)CC(=O)c1ccccc1S2 [S, S-10,11-dihydro-alpha-methyl-10-oxo-dibenzo[b,f]tiazem-2-acetic acid]
IC50 (Cox-2): 21.6 µM
tumefaction degree ([1]; 10 mg/kg ig): 4.9 ± 2.3 mg
tumefaction degree ([1]; 20 mg/kg ig): 3.1 ± 3.2 mg

CC(C(=O)O)c1ccc2c(c1)CC(=O)c1ccccc1S2 (racemic) [RS, 10,11-dihydro-alpha-methyl-10-oxo-dibenzo[b,f]tiazem-2-acetic acid, reference compound]
abirritation, times more than Indomethacin, Diclofenac Sodium, Ketoprofen, mefenamic acid [2]: 3-28 times
IC50 (Cox-2): 7.6 µM
tumefaction degree ([1]; 10 mg/kg ig): 5.2 ± 2.9 mg
tumefaction degree ([1]; 20 mg/kg ig): 3.7 ± 2.5 mg

C[C@@H](C(=O)O)c1ccc2c(c1)CC(=O)c1ccccc1S2 [R, R-10,11-dihydro-alpha-methyl-10-oxo-dibenzo[b,f]tiazem-2-acetic acid]
transformation between R-isomer and S-isomer during monitoring of blood drug level ([3]; ig): No transformation between R-isomer and S-isomer is detected
AUC(0-48) [3, 5]: 723.9 µg·h/mL and 239.0 µg·h/mL and 330.6 µg·h/mL and 814.3 µg·h/mL and 324.2 µg·h/mL and 1336.0 µg·h/mL
AUG(0-∞) [3, 5]: 772.8 mg/L*h and 337.7 mg/L*h and 818.7 mg/L*h and 325.6 mg/L*h and 1374.1 mg/L*h
CLz/F [3, 5]: 0.1 L/h/kg (3×) and 0.2 L/h/kg (2×) and 0.0 L/h/kg
Cmax [3, 5]: 260.8 µg/mL and 98.9 µg/mL and 67.8 µg/mL and 223.1 µg/mL and 131.5 µg/mL and 184.2 µg/mL
MRT(0-48) [3, 5]: 7.4 h and 2.2 h and 9.1 h and 5.4 h and 5.0 h and 10.3 h
Tmax [3, 5]: 1.0 h (2×) and 0.5 h (2×) and 0.3 h (2×)
t1/2z [3, 5]: 10.0 h and 2.2 h and 9.8 h and 7.8 h and 4.9 h and 9.6 h
AUG(0-∞) Mean ([3]; ig 50 mg/kg, mean of A-F): 647.5 mg/L*h
CLz/F Mean ([3]; ig 50 mg/kg, mean of A-F): 1.7 mL/min/kg
t1/2z Mean ([3]; ig 50 mg/kg, mean of A-F): 7.4 h
AUC(0-t) ([3]; rat, plasma, po, 50 mg/kg, ig 50 mg/kg, mean of A-F, read-out: AUC(0-48) Mean): 628 µg·h/mL
Cmax ([3]; rat, plasma, po, 50 mg/kg, ig 50 mg/kg, mean of A-F, read-out: Cmax Mean): 161 µg/mL
MRT last ([3]; rat, plasma, po, 50 mg/kg, ig 50 mg/kg, mean of A-F, read-out: MRT(0-48) Mean): 6.6 h
Tmax ([3]; rat, plasma, po, 50 mg/kg, ig 50 mg/kg, mean of A-F, read-out: Tmax Mean): 0.6 h
Vd/F ([3]; rat, plasma, po, 50 mg/kg, ig 50 mg/kg, mean of A-F, read-out: Vz/F Mean): 1 L/kg
IC50 (Cox-2): 48.6 µM
tumefaction degree ([1]; 20 mg/kg ip): 3.5 ± 2.0 mg
tumefaction degree ([1]; 40 mg/kg ig): 3.8 ± 2.8 mg
tumefaction degree ([1]; 40 mg/kg ip): 2.3 ± 1.8 mg
tumefaction degree ([1]; 80 mg/kg ig): 2.5 ± 1.4 mg
pain threshold(s) 0 h [4]: 15.2 ± 15.1 s
